Laboratory results as given in patent US20220380430A1, “Non-Transgenic Functional Rescue of Neuropeptides” (Worcester Polytechnic Institute, priority 2021, published 2022).
Entries after “also recorded” stand apart in the source; their conditions may differ. No end group written: not given here.

Columns and labels:
flp-3 lof males [1] = test: Single worm attraction assay (SWAA) to ascr #8 after FLP-3 peptide rescue-by-feeding; format: in vivo, C. elegans; details: flp-3 lof males raised on peptide; in words
Protocol: The outer forty wells of a 48-well suspension culture plate (Olympus Plastics, Cat #: 25-103) were seeded with 200 μL of standard NGM agar. To prepare the plates for the assay, they were acclimated to room temperature, at which point each well was seeded with 65 μL of OP50 E. coli. The assay plates were then transferred to a 37° C. incubator with the lid tilted for 4 h to allow the bacterial culture to dry on the agar. Once the bacterial culture dried, the lid was replaced the plate was stored at 20° C. until used in the assay. Fifty to sixty L4 worms were segregated by sex and stored at 20° C. for 5 h to overnight to be assayed as young adults. 0.8 μL of either vehicle control or ascaroside #8 was placed in the center of the well corresponding to that condition within the quadrant being tested, following a random block design (FIG. 11A). A single worm was placed in each of the 10 wells to be assayed, and the plate was transferred to a light source and camera and recorded for 15 m. This process was repeated for all four quadrants. Each strain and sex were assayed over five plates assayed on at least three different days. Raw dwell time values were calculated by subtracting the time a worm exited the cue (center of the well in spatial controls), from the time it entered, as in the SRA. This was determined per visit, and the average dwell time was calculated for each animal in the quadrant. Averages of the four-quadrant means were determined per plate, and a minimum of five plates were assayed per strain/condition. The mean raw dwell time across five plates was calculated and used for statistical analyses and graphical display. The average dwell time in the ascaroside was divided by the average dwell time within the vehicle control per plate to generate a fold-change. To transform the data, the log of this fold-change was taken, and the average log(fold-change) was used for statistical analyses and graphical display. […]

FRPR-16 = target: T1, FRPR-16 (Caenorhabditis elegans, UniProt Q21957); test: In vitro GPCR activation assay (CHO-K1 cells, aequorin, human Gα16), FRPR-16; format: cell-based, C. elegans; details: calcium/aequorin luminescence in transfected CHO-K1 cells
T1 sequence (Q21957 1-340): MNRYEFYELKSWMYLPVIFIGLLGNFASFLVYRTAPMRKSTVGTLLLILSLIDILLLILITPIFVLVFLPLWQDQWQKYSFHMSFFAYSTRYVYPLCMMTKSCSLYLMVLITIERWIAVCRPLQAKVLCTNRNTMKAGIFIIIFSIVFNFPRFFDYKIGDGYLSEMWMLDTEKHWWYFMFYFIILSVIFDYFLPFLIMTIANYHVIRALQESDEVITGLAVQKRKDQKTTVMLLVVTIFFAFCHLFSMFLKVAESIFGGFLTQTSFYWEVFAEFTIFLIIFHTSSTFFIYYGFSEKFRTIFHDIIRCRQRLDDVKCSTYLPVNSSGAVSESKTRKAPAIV
Protocol: (§1) The GPCR activation assay was performed as previously described Van Sinay, E. et al. Proc. Natl Acad. Sci. USA 114, E4065-e4074 (2017) and Peymen, K. et al. PLoS Genet. 15, e1007945 (2019). Briefly, npr-10 and frpr-16 cDNAs were cloned into the pcDNA3.1 TOPO expression vector (Thermo Fisher Scientific). A CHO-K1 cell line (PerkinElmer, ES-000-A24) stably expressing apo-aequorin targeted to the mitochondria (mtAEQ) and human Gα16 was transiently transfected with the receptor cDNA construct or the empty pcDNA3.1 vector using Lipofectamine LTX and Plus reagent (Thermo Fisher Scientific). Cells were shifted to 28° C. one day later and allowed to incubate for 24 h. On the day of the assay, cells were collected in BSA medium (DMEM/Ham's F12 with 15 mM HEPES, without phenol red, 0.1% BSA) and loaded with […] coelenterazine h (Thermo Fisher Scientific) for 4 h at room temperature. The incubated cells were then added to synthetic peptides dissolved in DMEM/BSA, and luminescence was measured for 30 s at […] using a Mithras LB940 (Berthold Technologies) or MicroBeta LumiJet luminometer (PerkinElmer). After 30 s of readout, 0.1% triton X-100 was added to lyse the cells, resulting in a maximal calcium response that was measured for 10 s. After initial screening, concentration-response curves were constructed for HPLC-purified FLP-3 peptides by subjecting the transfected cells to each peptide in a concentration range from 1 pM to 10 μM. Cells transfected with an empty vector were used as a negative control. Assays were performed in triplicate on at least two independent days. Concentration-response curves were fitted using Prism v. 7 (nonlinear regression analysis with a sigmoidal concentration-response equation).

flp-3 lof males [2] = test: Drop avoidance assay to ascr #8 after FLP-3 peptide rescue-by-feeding; format: in vivo, C. elegans; details: flp-3 lof males raised on peptide; 1 μM ascr #8; in words
Protocol: To identify which FLP-3 peptides are required for male avoidance of ascr #8, a peptide feeding approach https://www.nature.com/articles/s42003-021-02547-7-ref-CR59 was adopted, similar to RNAi feeding (FIG. 16A). Using Gateway Cloning technology, FLP-3 peptide coding sequences were inserted into a bacterial expression vector. As a control, first the FLP-3 peptides were tested that are still encoded in the ok3625 allele which are insufficient to drive the proper ascr #8 response in vivo: FLP-3-1 (SPLGTMRFamide) (SEQ ID NO: 10) and FLP-3-4 (NPLGTMRFamide) (SEQ ID NO: 11). Then flp-3 lof animals were reared on lawns of bacteria expressing the rescue constructs, and their progeny were assayed for avoidance (FIG. 16B-FIG. 16D).
Assays were performed as described previously in Chute, C. D. & Srinivasan, J. Semin. Cell Dev. Biol. 33, 18-24 (2014); Chute, C. D. et al. Nat. Commun. 10, 3186 (2019); and Hilliard, M. A. et al., EMBO J. 23, 1101-1111 (2004). Fifty to sixty L4 worms were segregated by sex and stored at 20° C. for 5 h to overnight to be assayed as young adults. One to four hours prior to the assay, the lids of unseeded plates were tilted to allow any excess moisture to evaporate off the plates. At the time of the assay, 10 or more animals were transferred onto each of the dried, unseeded plates. A drop of either water or 1 μM ascr #8 was placed on the tail of forward moving animals, and their response was scored as either an avoidance response, or no response. The total number of avoidances was divided by the total number of drops to generate an avoidance index for that plate. This was repeated for at least 10 plates over at least three different days.
SCRAMBLE control or FLP-3 peptide constructs were grown overnight in LB media containing […] ampicillin at 37° C. and diluted to an OD600 of 1.0 prior to seeding on NGM plates containing […] ampicillin and 1 mM IPTG. The 75 μL lawn was left to dry and grow overnight at room temperature before three L4 animals were placed on the plates. Males were selected for testing in the same manner as described above but were isolated onto plates also seeded with the same peptide on which they had been reared. Animals were then assayed using either the avoidance assay or single worm assay.

NPR-10B = target: T2, NPR-10B (Caenorhabditis elegans, UniProt Q6EUU1); test: In vitro GPCR activation assay (CHO-K1 cells, aequorin, human Gα16), NPR-10B; format: cell-based, C. elegans; details: title: NPR-10B; calcium/aequorin luminescence in transfected CHO-K1 cells
T2 sequence (Q6EUU1 1-362): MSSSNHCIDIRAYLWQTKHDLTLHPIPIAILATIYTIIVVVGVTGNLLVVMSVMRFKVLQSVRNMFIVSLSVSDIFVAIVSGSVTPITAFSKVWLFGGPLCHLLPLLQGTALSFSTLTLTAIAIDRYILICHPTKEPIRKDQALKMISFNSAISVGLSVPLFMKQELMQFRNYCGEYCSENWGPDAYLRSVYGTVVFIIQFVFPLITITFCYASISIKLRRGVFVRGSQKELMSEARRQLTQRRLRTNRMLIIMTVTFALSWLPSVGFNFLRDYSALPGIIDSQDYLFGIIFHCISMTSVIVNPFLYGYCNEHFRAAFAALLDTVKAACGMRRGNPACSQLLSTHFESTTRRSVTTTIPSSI
Protocol: Using Chinese hamster ovarian (CHO) cell cultures stably expressing the promiscuous G protein, Gα16, and the calcium reporter, aequorin, it was observed that both isoforms of NPR-10 are activated by seven of the ten FLP-3 peptides, with half-maximal effective concentrations (EC50) in the nM range (FIG. 14A-FIG. 14H, Table V). […] This peptide contains an R-to-K mutation within the C-terminal motif, which may explain the lack of receptor activation.
as §1

ins-6 lof worms = test: NaCl chemotaxis assay after rescue-by-feeding; format: in vivo, C. elegans; details: 750 mM NaCl, in words
Protocol: All animals were maintained on bacterial lawns of OP50 E. coli, at 20° C., on NGM agar plates until the start of experiments. Mutant or control animals were transferred onto lawns of DH5α E. coli expressing either scramble peptide or the rescue peptide-of-interest on NGM plates containing […] AMP and 1 mM IPTG. Animals were reared on the peptide-expressing lawns for at least 48 hours at 20° C. before assaying for rescue of mutant phenotype at the appropriate developmental stage.
A salt chemotaxis assay was performed as previously described in Leinwand, S. G. & Chalasani, S. H. Nature neuroscience 16, 1461-1467 (2013); Bargmann, C. I. & Horvitz, H. R. Neuron 7, 729-742 (1991) to test the functionality of ins-6 after rescue-by-feeding. Wild-type (N2) and ins-6 worms were fed either scramble or INS-6 peptide passing 4-6 L4 larval onto an NGM plate containing […] AMP and 1 mM IPTG with 75 μL of peptide OD600=1.0. These worms were grown at 20° C. for about 4 days until the progeny of the initial L4 worms were young adults.
The day prior to testing, a thin, 10 mL layer of agar was added to 10 cm petri dishes to generate a 10 cm Chemotaxis Plates (5 mM KPO4 (pH 6.0), 1 μM MgSO4, 1 μM CaCl2), 20 g/L agar, and 8 g/L Difco Nutrient Broth). To prepare the “high salt” plates, 750 mM NaCl was added prior to plate pouring. The high salt plate were stored at 4° C. for up to one month, while the Chemotaxis Plates were made one day prior to testing. To create the high and low salt plugs, the back end of a Pasteur pipette was used to punch a 5 mm plug out of each plate. These 2 plugs were placed on opposite edges of the plate. A 10 mm radius was be drawn around the location of the plugs (FIG. 1). Plates were stored, lightly covered, overnight at room temperature (˜20° C., <40% humidity). […]
Young adult hermaphrodites are tested in the Chemotaxis Assay with no more than three replicates per day, over a minimum of three days, with 100-200 worms/assay plate. The […] Chemotaxis Index (CI) was calculated as follows: […]

| Substance | rescue of attraction to ascr #8 (dwell time, log(fold-change)) (flp-3 lof males [1]) | EC50 (FRPR-16) [µM] | rescue of avoidance phenotype to ascr #8 (Avoidance Index) (flp-3 lof males [2]) | EC50 (NPR-10B) [µM] | rescue of NaCl chemotaxis (ins-6 lof worms; ins-6 lof worms fed peptide) | chemotaxis on overexpression by feeding (ins-6 lof worms; wild-type animals fed INS-6) |
| --- | --- | --- | --- | --- | --- | --- |
| NPENDTPFGTMRF-NH2 [FLP-3-9, NPENDTPFGTMRFamide] | full rescue of their ability to be attracted to the cue; also recorded: restores the attraction to wild-type | 0.0883 | lack of avoidance to ascr #8; also recorded: undo the Avoidance phenotype associated with the flp-3 mutation | 0.76 |  |  |
| VPAPGETRACGRKLISLVMAVCGDLCNPQEGKDIATECCGNQCSDDYIRSACCP-NH2 (cysteine pairing not given here) [INS-6] |  |  |  |  | complete rescue of NaCl chemotaxis; also recorded: restores the Chemotaxis Index at a level similar to the canonical transgenic rescue; also recorded: complete restoration of attraction to high salt concentration | does not result in changes in attraction towards 750 mM NaCl; also recorded: does not affect chemotaxis in wild type animals; also recorded: slight defects in CI towards high salt |
| TPLGTMRF-NH2 [FLP-3-2, TPLGTMRFamide] | not able to restore the animal's ability to be attracted to ascr #8; also recorded: seems to make the animals less attracted to the cue | 0.0317 | able to abolish the avoidance phenotype; also recorded: undo the Avoidance phenotype associated with the flp-3 mutation | 0.366 |  |  |
